Test results as given in patent US8309550B2, “Kinase inhibitors and their use as pharmaceutical agents” (Shanghai Genomics, Inc., priority 2011, dated 2012).
Like-named read-outs stand apart in the source and are kept apart here.

What was measured:
WI-38 = assay: 72 h MTT cell viability WI-38 (normal lung); type: cell-based; details: Homo sapiens; WI-38, normal lung cell line
Excerpt: (§1) MIT cytotoxicity assay. The compounds of the invention were subjected to a standard cellular proliferation assay using human cell lines. HeLa cells (Human cervix adenocarcinoma cell line, ATCC NO, CCL-2); A549 cells (Human lung carcinoma cells line, ATCC NO, CCL-185); U2OS cells (Human osteosarcoma cell line, ATCC NO, HTB-96); Eca-109 cells (Human esophageal carcinoma cell line); HepG2 (Human hepatocellular liver carcinoma cell line, ATCC NO, HB-8065); K562 cells (Human chronic myelogenous leukemia cell line, ATCC NO, CCL-243); SK-MEL-28 (Human malignant melanoma cell line, ATCC NO, HTB-72); Molt-4 (Human acute lymphoblastic leukemia cell line, ATCC NO, CRL-1582); H460 (Human large cell lung cancer cell line, ATCC NO, HTB-177); MDA-MB-231 (Human breast adenocarcinoma cell line, ATCC NO, HTB-26); MCF7 (Human breast adenocarcinoma cell line, ATCC NO, HTB-22); ACHN (Human renal cell adenocarcinoma cell line, ATCC NO, CRL-1611); PC-3M (Human prostate adenocarcinoma cell line, ATCC NO CRL-1435); HL60 (Human acute promyelocytic leukemia cell line, ATCC NO, CCL-240); THP-1 (Human acute monocytic leukemia, ATCC NO, TIB-202); Jurkat (Human acute T cell leukemia cell line, ATCC NO, CRL-2063); HCT-116 (Human colorectal carcinoma cell line, ATCC NO, CCL-247); HT-29 (Human colorectal adenocarcinoma cell line, ATCC NO, HTB-38™); WI-38 (Human normal lung cell line, ATCC NO, CCL-75); MRC-5 (Human normal lung cell line, ATCC NO, CCL-171).
(§2) HepG2, MDA-MB-231, WI-38 and MRC-5 cells were obtained from Shanghai Institute of Cell Biology, Chinese Academy of Sciences (Shanghai 200031, China). A549, HeLa, K562, MCF7, ACHN, H460, U2OS, Eca-109, MCF7, HL60, THP-1, Jurkat, HCT-116, HT-29, PC-3M, SK-MEL-28, Molt-4, H460 and […] cells were purchased from ATCC (American Type Culture Collection, USA).
(§3) Standard 72 h MTT (thiazolye blue; 3-[4,5-dimethylthiazol-2-yl]-2,5-diphenyltetrazolium bromide) assays were performed. Briefly, the cell lines used in this study were recovered and cultured according to the conditions recommended. 4000 cells per well were seeded into 96-well plates according to doubling time and incubated overnight at 37° C. Compounds were prepared in DMSO and a ½ dilution series in 100 μl cell culture media, added to cells (in duplicates) with the final DMSO concentration of 0.025%, and incubated for 72 hrs at 37° C. MTT solution (5 mg/ml) was added at 10 μl per well and incubated in the dark at 37° C. for 4 hr. Culture medium and MTT solution was removed. MTT dye was solubilised with 100 μl per well of DMSO with agitation. Absorbance was read at 562 nm and data analyzed using Sigmoid curve-fitting software Origin 6.0 (MicroCal, LLC, USA) to determine IC50 value.

SK-MEL-28-luc = assay: 72 h MTT cytotoxicity assay SK-MEL-28-luc; type: cell-based; details: Homo sapiens
Excerpt: as §1, §2, §3

HT-29 = assay: 72 h MTT cell viability HT-29; type: cell-based; details: Homo sapiens
Excerpt: as §1, §2, §3

CDK9T1 = CDK9T1 (Homo sapiens, UniProt P50750); assay: Kinase assay CDK9T1 (Table I); type: biochemical; details: read-out: Kinase inhibition, IC50 CDK9T1
Sequence of CDK9T1 (P50750 whole entry): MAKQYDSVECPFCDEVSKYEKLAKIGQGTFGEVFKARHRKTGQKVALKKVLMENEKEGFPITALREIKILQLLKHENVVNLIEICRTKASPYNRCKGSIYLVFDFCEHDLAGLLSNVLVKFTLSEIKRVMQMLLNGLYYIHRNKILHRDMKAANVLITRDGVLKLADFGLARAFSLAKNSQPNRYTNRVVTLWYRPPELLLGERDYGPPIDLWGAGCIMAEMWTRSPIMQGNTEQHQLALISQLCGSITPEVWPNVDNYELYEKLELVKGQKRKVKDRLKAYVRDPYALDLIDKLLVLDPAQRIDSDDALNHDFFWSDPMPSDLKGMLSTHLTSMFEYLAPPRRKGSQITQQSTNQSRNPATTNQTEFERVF
Sequence of CDK9T1 (O60563 whole entry partner): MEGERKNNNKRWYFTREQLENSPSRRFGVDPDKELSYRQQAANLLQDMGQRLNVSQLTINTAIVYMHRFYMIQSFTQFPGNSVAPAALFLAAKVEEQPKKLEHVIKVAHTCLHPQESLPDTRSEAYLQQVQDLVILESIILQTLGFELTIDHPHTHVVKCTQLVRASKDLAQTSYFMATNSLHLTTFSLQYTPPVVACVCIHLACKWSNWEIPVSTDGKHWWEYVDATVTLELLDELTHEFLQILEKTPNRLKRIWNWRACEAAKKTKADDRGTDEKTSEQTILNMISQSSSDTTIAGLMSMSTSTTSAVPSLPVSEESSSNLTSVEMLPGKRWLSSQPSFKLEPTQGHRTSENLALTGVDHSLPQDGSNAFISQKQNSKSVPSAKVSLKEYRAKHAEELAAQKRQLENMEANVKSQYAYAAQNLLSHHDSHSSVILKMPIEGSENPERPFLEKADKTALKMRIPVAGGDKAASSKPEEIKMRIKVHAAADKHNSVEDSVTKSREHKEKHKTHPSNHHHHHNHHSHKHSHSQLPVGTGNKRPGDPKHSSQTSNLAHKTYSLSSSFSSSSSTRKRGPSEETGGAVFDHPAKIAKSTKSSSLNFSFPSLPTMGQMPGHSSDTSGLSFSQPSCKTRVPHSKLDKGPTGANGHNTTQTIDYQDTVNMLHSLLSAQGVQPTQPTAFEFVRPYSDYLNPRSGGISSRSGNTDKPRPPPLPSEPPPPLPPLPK

CDK7 = CDK7 (Homo sapiens, UniProt P50613); assay: Kinase assay CDK7 (Table III); details: read-out: Target biochemical activity IC50 CDK7
Sequence of CDK7 (P50613 whole entry, species assumed): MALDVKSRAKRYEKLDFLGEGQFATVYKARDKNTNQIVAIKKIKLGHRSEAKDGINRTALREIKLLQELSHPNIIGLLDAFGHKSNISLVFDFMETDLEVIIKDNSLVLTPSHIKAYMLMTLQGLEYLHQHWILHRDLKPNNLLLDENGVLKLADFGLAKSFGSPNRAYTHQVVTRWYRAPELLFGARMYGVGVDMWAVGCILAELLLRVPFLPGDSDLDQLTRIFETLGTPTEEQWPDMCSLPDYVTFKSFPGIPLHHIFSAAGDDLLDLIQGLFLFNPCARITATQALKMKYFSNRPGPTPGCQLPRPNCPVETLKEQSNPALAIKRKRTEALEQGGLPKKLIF
Sequence of CDK7 (P51946 whole entry partner, species assumed): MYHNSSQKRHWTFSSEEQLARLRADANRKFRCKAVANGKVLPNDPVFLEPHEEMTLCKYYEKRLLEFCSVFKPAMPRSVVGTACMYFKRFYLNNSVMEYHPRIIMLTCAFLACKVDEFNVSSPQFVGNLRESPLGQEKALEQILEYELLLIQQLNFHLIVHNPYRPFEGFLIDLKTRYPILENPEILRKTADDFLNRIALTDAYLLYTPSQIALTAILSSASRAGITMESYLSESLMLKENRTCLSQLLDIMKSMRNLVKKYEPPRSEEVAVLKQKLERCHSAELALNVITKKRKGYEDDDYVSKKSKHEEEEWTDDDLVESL
Sequence of CDK7 (P51948 whole entry partner, species assumed): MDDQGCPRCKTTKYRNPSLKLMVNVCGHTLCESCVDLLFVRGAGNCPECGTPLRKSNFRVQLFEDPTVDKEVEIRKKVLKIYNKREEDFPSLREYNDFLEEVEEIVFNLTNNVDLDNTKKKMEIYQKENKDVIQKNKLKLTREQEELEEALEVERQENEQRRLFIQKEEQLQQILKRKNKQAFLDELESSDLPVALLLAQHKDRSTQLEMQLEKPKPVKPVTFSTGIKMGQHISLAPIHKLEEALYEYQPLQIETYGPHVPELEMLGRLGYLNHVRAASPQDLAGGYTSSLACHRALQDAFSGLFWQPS
Method: (§4) Kinase assays. The compounds were tested for their ability to inhibit kinases.

TSSK1 = target: T1, TSSK1 (Homo sapiens, UniProt Q9BXA7); assay: Kinase assay TSSK1 (Table III); details: read-out: Target biochemical activity IC50 TSSK1
T1 sequence (Q9BXA7 1-367): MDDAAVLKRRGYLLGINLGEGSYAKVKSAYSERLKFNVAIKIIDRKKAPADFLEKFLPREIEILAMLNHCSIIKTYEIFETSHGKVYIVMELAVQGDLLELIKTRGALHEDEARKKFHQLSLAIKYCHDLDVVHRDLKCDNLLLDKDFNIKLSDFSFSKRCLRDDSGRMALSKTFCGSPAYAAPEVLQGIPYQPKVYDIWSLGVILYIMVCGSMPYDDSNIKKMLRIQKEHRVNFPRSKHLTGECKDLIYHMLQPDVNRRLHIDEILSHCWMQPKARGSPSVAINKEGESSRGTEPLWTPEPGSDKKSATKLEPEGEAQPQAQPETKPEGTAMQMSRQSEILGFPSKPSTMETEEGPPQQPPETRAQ
Method: as §4

SRC = SRC (Homo sapiens, UniProt P12931); assay: Kinase assay SRC (Table III); details: read-out: Target biochemical activity IC50 SRC
Sequence of SRC (P12931 whole entry, species assumed): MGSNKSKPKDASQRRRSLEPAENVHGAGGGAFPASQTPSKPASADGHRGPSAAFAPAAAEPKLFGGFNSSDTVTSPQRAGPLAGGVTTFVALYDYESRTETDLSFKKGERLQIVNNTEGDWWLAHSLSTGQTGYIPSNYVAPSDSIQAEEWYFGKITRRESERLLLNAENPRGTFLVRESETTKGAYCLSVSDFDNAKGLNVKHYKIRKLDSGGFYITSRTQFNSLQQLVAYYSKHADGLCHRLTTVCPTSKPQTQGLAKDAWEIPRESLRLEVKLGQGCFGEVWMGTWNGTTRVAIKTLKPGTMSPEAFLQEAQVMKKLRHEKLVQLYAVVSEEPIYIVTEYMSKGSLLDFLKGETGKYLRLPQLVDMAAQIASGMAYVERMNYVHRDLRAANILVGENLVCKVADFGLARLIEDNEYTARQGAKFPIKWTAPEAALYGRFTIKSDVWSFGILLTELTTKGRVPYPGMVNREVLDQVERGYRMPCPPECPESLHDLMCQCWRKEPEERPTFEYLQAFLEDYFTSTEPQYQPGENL
Method: as §4

CDK9 = CDK9 (Homo sapiens, UniProt P50750); assay: CDK9 inhibitory activity, kinase assays (Table III); details: read-out: Target biochemical activity IC50 CDK9
Sequence of CDK9 (P50750 whole entry, species assumed): as the sequence (P50750 whole entry) above
Sequence of CDK9 (O60563 whole entry partner, species assumed): as the sequence (O60563 whole entry partner) above
Method: as §4

[1] = read-out: Cell Viability IC50 HT-29
[2] = HT29, Table III, read-out: Cellular effect in mammalian cells IC50 HT29

| IC50 (HT-29; [1]) | IC50 (CDK9T1) | IC50 (CDK7) | IC50 (HT-29; [2]) | IC50 (TSSK1) | IC50 (SRC) | IC50 (CDK9) | SMILES | IC50 (WI-38) | IC50 (SK-MEL-28-luc) |
| --- | --- | --- | --- | --- | --- | --- | --- | --- | --- |
| 480 nM | 8.6 nM | – | – | – | – | – | CCCn1cc(-c2ccnc(Nc3cccc(S(N)(=O)=O)c3)n2)c2ccnc(Cl)c21 [Compound 96, 3-(4-(7-chloro-1-propyl-1H-pyrrolo[2,3-c]pyridin-3-yl)pyrimidin-2-ylamino)benzenesulfonamide] | > 10000 nM | 260 nM |
| 50 nM | 0.7 nM | – | – | – | – | – | CCCn1cc(-c2ccnc(Nc3ccc(S(N)(=O)=O)cc3)n2)c2ccncc21 [Compound 112, 4-(4-(1-Propyl-1H-pyrrolo[2,3-c]pyridin-3-yl)pyrimidin-2-ylamino)benzenesulfonamide] | > 10000 nM | 3.8 nM |
| – | – | 43 nM | 20 nM | 1.6 nM | 200 nM | 0.6 nM | CCCn1cc(-c2ccnc(Nc3cccc(S(N)(=O)=O)c3)n2)c2ccncc21 [SG51] | – | – |
| 810 nM | 14 nM | 146 nM | – | – | 1050 nM | 13 nM | CCn1cc(-c2ccnc(Nc3cccc(S(N)(=O)=O)c3)n2)c2cccnc21 [Compound 18, 3-(4-(1-Ethyl-1H-pyrrolo[2,3-b]pyridin-3-yl)pyrimidin-2-ylamino)benzenesulfonamide] | 11100 nM | 8590 nM |
| 1350 nM | 1010 nM | – | – | – | – | – | CCCn1cc(-c2ccnc(Nc3ccc(C)c(S(=O)(=O)N4CCOCC4)c3)n2)c2cccnc21 [Compound 24, N-(4-Methyl-3-(morpholinosulfonyl)phenyl)-4-(1-propyl-1H-pyrrolo[2,3-b]pyridin-3-yl)pyrimidin-2-amine] | > 10000 nM | 3050 nM |
| – | – | > 10000 nM | – | > 10000 nM | > 10000 nM | 41 nM | CCCn1cc(-c2ccnc(Nc3cccc(S(N)(=O)=O)c3)n2)c2nc(Cl)cc(C)c21 [SG53] | – | – |
| 200 nM | 41 nM | – | – | – | – | – | CCCn1cc(-c2ccnc(Nc3cccc(S(N)(=O)=O)c3)n2)c2nc(Cl)cc(C)c21 [Compound 42, 3-(4-(5-Chloro-7-methyl-1-propyl-1H-pyrrolo[3,2-b]pyridin-3-yl)pyrimidin-2-ylamino)benzenesulfonamide] | – | 9450 nM |
| – | – | 1950 nM | 450 nM | > 10000 nM | 3930 nM | 0.4 nM | CCCn1cc(-c2ccnc(Nc3ccc(C)c(S(=O)(=O)N4CCOCC4)c3)n2)c2ccncc21 [SG52] | – | – |
| – | – | > 10000 nM | 150 nM | > 10000 nM | > 10000 nM | 57 nM | CCCn1cc(-c2ccnc(Nc3ccc(S(N)(=O)=O)cc3)n2)c2nc(Cl)cc(C)c21 [SG54] | – | – |
| – | 0.4 nM | – | – | – | – | – | CCCn1cc(-c2ccnc(Nc3ccc(C)c(S(=O)(=O)N4CCOCC4)c3)n2)c2ccncc21 [Compound 102, N-(4-Methyl-3-(morpholinosulfonyl)phenyl)-4-(1-propyl-1H-pyrrolo[2,3-c]pyridin-3-yl)pyrimidin-2-amine] | – | 990 nM |
| – | 140 nM | – | – | – | – | – | CCCn1cc(-c2ccnc(Nc3cccc(O)c3)n2)c2cccnc21 [Compound 16, 3-(4-(1-Propyl-1H-pyrrolo[2,3-b]pyridin-3-yl)pyrimidin-2-ylamino)phenol] | > 10000 nM | 8510 nM |
| – | 0.6 nM | – | – | – | – | – | CCCn1cc(-c2ccnc(Nc3cccc(S(N)(=O)=O)c3)n2)c2ccncc21 [Compound 111, 3-(4-(1-Propyl-1H-pyrrolo[2,3-c]pyridin-3-yl)pyrimidin-2-ylamino)benzenesulfonamide] | – | 10 nM |
| – | 1400 nM | – | – | – | – | – | CCCn1cc(-c2ccnc(Nc3ccc(O)cc3)n2)c2cccnc21 [Compound 15, 4-(4-(1-Propyl-1H-pyrrolo[2,3-b]pyridin-3-yl)pyrimidin-2-ylamino)phenol] | > 10000 nM | 9430 nM |
| 1460 nM | 97 nM | – | – | – | – | – | CCCn1cc(-c2ccnc(Nc3cccc(S(N)(=O)=O)c3)n2)c2cccnc21 [Compound 22, 3-(4-(1-Propyl-1H-pyrrolo[2,3-b]pyridin-3-yl)pyrimidin-2-ylamino)benzenesulfonamide] | – | 2720 nM |
| 2930 nM | 150 nM | – | – | – | – | – | CCn1cc(-c2ccnc(Nc3cccc(C#N)c3)n2)c2cccnc21 [Compound 20, 3-(4-(1-Ethyl-1H-pyrrolo[2,3-b]pyridin-3-yl)pyrimidin-2-ylamino)benzonitrile] | – | 7790 nM |
